Assay results published in PubChem BioAssay AID1053149 (Broad Institute, 2014).

Assays:
[1] = system: HepG2 secreted PCSK9, ELISA, 24 h; test: PCSK9 secretion decrease in hepatoma cells – cell-based, HepG2, ELISA, plate reader, cherry-pick, orthogonal assay for Trib1 inducer project, dose response (AID 1053149)
[2] = as above; conditions: HepG2 secreted PCSK9, ELISA, 24 h; measured here: maximal PCSK9 decrease; stronger effect = higher value

| SMILES | AC50 [1] [µM] | decrease in PCSK9 [2] [%] |
| --- | --- | --- |
| CN1C(=O)c2cc(NC(=O)c3ccc(C(F)(F)F)cc3)ccc2OC[C@@H]2O[C@H](CC(=O)NC3Cc4ccccc4C3)CC[C@@H]21 | 0.6 | 79 |
| CN1C(=O)c2cc(NC(=O)c3ccc(C(F)(F)F)cc3)ccc2OC[C@@H]2O[C@@H](CC(=O)NC3Cc4ccccc4C3)CC[C@@H]21 | 6.6 | 80 |
